{
  "source": "patent US20120270890A1",
  "about": "“Methods of Pancreatic Beta Cell Regeneration” (priority 2011, published 2012)",
  "assay_type_in_all_cases": "in vivo, mice",
  "key": {"[1]": {"assay": "Mortality and glycemia following PDL plus alloxan", "method": "(§1) Six- to ten-week old C57/B6 or ICR (Institute of Cancer Research) mice (Harlan Sprague Dawley, Inc.; Placentia, Calif., USA) were injected intravenously with Alloxan (Sigma Aldrich, St. Louis, Mo., USA) at 90 mg/kg. PDL was conducted essentially as described with the following minor modifications. Approximately 50% of the pancreas (the head) remained proximal to the ligation. For the mice receiving PDL plus A, PDL was performed 30 minutes after alloxan injection. Only mice with a blood sugar greater than 500 mg/dl (checked 48 hours after alloxan injection) were selected for experiments. Those mice were injected subcutaneously once daily with insulin glargine (Sanofi-Aventis, Paris, France).\nThe initial insulin dose was 1 unit per mouse (around […] in weight). If hyperglycemia was not controlled at that dose, it was raised gradually until diabetes was controlled. Even with careful management of diabetes, the mortality following PDL plus alloxan was high, around 50%."}, "[2]": {"test_system": "β-cells", "assay": "β-cell elimination and β-cell mass after alloxan injection, with or without PDL", "method": "as §1\nQuantitation of β-cell Mass—β-cell mass was calculated as the relative β-cell area multiplied by pancreatic weight. For the quantitative analysis of insulin (+) cell area, we studied sections spaced 100 lm apart from each other from the tail of the pancreas per mouse. These sections were incubated with antisera to insulin (1:200, rabbit, Santa Cruz Biotechnology, Santa Cruz, Calif., USA) and the bound antibody was visualized by DAB (3,30-Diaminobenzidine) (Vector Laboratories, Burlingame, Calif., USA). The nuclei were stained by Hematoxylin (Surgipath, Richmond, Ill., USA). All slides were scanned and analyzed by using the Aperio ScanScope XT system (version 10, Aperio Technologies, Vista, Calif.)."}, "[3]": {"test_system": "insulin-positive and glucagon-positive cells of the pancreas", "assay": "Immunohistochemical marker quantification in pancreas after PDL plus alloxan", "method": "as §1\nImmunohistochemical Staining—Tissue was fixed in 4% formaldehyde for 6 hours at 4° C., washed in PBS (Phosphate buffered saline), followed by overnight in 30% sucrose at 4° C., then embedded in OCT (Optimal Cutting Temperature) compound and frozen at […]. Cryosections of 5 um thickness were incubated with antisera specific for insulin (1/200, guinea pig, USBIO, Swampscott, Mass., USA), insulin (1/200, rabbit, Santa Cruz Biotechnology, Santa Cruz, Calif., USA), glucagon (1/2,000, mouse, Sigma-Aldrich, St. Louis, Mo., USA), glucagon (1/50, rabbit, Abcam, Cambridge, Mass., USA), cytokeratin (Wide Spectrum Screening; 1/500, rabbit, DakoCytomation, Glostrup, Denmark), somatostatin (1/200, goat, Santa Cruz Biotechnology, Santa Cruz, Calif., USA), KI67 (1/50, mouse, BD Pharmingen, San Diego, Calif., USA), MafA (1/100, rabbit, Bethyl Laboratories, Montgomery, Tex., USA), MafB (1/100, rabbit, Bethyl Laboratories, Montgomery, Tex., USA), PDX1 (1/2,000, goat, Abcam, Cambridge, Mass., USA), Nkx6.1 (1/1,000, mouse, Beta Cell Biology Consortium, Nashville, Tenn., USA), 5-bromodeoxyuridine (BrdU; mouse, GE healthcare, Piscataway, N.J., USA), and C-peptide (1/100, rabbit, Cell Signaling, Danvers, Mass., USA). Secondary antibodies for detection of guinea pig, rabbit, goat, or mouse antibodies were labeled with: Alexa Fluor 488 (Invitrogen, Carlsbad, Calif., USA), Rhodamine Red (Jackson ImmunoResearch Laboratories, West Grove, Pa., USA), Cy5 (Jackson ImmunoResearch Laboratories, West Grove, Pa., USA). Nuclei were visualized with DAPI (40,6-diamidino-2-phenylindole) (Sigma Aldrich, St. Louis, Mo., USA).\nImage and Statistical Analysis—All images were acquired by confocal scanning microscopy (Radiance 2100/AGR-3Q BioRad Multi-photon Laser Point Scanning Confocal Microscope). Images were processed with Image J software. The colocalization patterns in FIG. 4, FIGS. 18 and 19 were determined by the colocalization threshold algorithm in WCIF image J. Confocal z stacks were captured at 0.5 lm increments. Three dimensional reconstructions and measurements were performed by using Volocity software (version 5.3). Statistical significance of cell-specific changes in controls versus experimental groups was calculated by an unpaired Student's t-test. We considered p-values below 0.05 as statistically significant. For all statistical analysis, Graphpad Prism 5 was used. All results are expressed as mean±SD."}, "[4]": {"details": "14 days following alloxan plus PDL"}, "[5]": {"details": "seven days following PDL plus alloxan"}},
  "data": [
    {"smiles": "O=C1NC(=O)C(=O)C(=O)N1", "note": "[alloxan]", "values": [
      {"measurement": "normoglycemia", "setting": "[1]; PDL plus alloxan", "result": "did not achieve normoglycemia"},
      {"measurement": "mortality", "setting": "[1]; following PDL plus alloxan, with insulin glargine management of diabetes", "result": "around 50%"},
      {"measurement": "residual β-cells, of pre-existing β-cells", "setting": "[2]; after alloxan", "result": "less than 1%"},
      {"measurement": "pre-existing β-cells eliminated", "setting": "[2]; alloxan injection, by 3 days after injection", "result": 99, "unit": "%"},
      {"measurement": "β-cell regeneration", "setting": "[2]; alloxan treatment alone, two weeks later", "result": "no evidence of β-cell regeneration"},
      {"measurement": "change in β-cell mass", "setting": "[2]; alloxan, between 3 and 14 days after injection", "result": "no change in the β-cell mass"},
      {"measurement": "β-cells eliminated", "setting": "[2]; following PDL plus alloxan", "result": "greater than 99%"},
      {"measurement": "insulin-positive cells coexpressing glucagon", "setting": "[3]; 1 week following PDL plus alloxan", "result": 58, "unit": "%"},
      {"measurement": "frequency of replicating insulin-positive cells (Ki67)", "setting": "[3]; 3 days following alloxan plus PDL", "result": 0.98, "unit": "%"},
      {"measurement": "replication rate of glucagon-positive cells", "setting": "[3]; 7 days following PDL plus alloxan", "result": 5, "unit": "%"},
      {"measurement": "insulin-positive cells coexpressing glucagon", "setting": "[3]; 14 days following PDL plus alloxan", "result": 21, "unit": "%"},
      {"measurement": "β-cells expressing MafA", "setting": "[3]; [4]", "result": 63, "unit": "%"},
      {"measurement": "β-cells expressing MafB", "setting": "[3]; [4]", "result": 22, "unit": "%"},
      {"measurement": "α-cells expressing PDX1", "setting": "[3]; PDL plus alloxan, within 1 week", "result": 11, "unit": "%"},
      {"measurement": "frequency of replicating insulin-positive cells (Ki67)", "setting": "[3]; day 7 following PDL plus alloxan", "result": 6, "unit": "%"},
      {"measurement": "frequency of replicating insulin-positive cells (Ki67)", "setting": "[3]; day 14 following PDL plus alloxan", "result": "decreased to basal levels"},
      {"measurement": "insulin positive cells expressing MafA", "setting": "[3]; [5]", "result": 26, "unit": "%"},
      {"measurement": "insulin positive cells expressing MafB", "setting": "[3]; [5]", "result": 64, "unit": "%"}
    ]}
  ]
}
